In patent publication US20120252689A1, “GENE EXPRESSION SIGNATURE FOR WNT/B-CATENIN SIGNALING PATHWAY AND USE THEREOF” (priority 2011, published 2012):

Columns and labels:
active β-catenin [1] = assay: Western blot of active β-catenin after LiCl treatment of 293H and CCD1079SK cells; type: cell-based, human; conditions: 20 μM LiCl, 24 h in serum-free medium, FIG. 3B
Procedure: For positive regulation with LiCl treatment, 293H and CCD1079SKcells were plated in 6-well plate in a density of 2×10^5 cells/well/2 ml and cells were switched to serum-free medium 24 hours after plating. After 12 hours incubation in serum-free medium, cells were treated with or without 20 μM LiCl for 24 h in serum-free medium. At the end of treatment, cells were lysed in 200 μl of G6 lysis buffer and RNA was isolated with RT2 qPCR-Grade RNA Isolation Kit from SABiosciences according to manufacturer's protocol described in experimental protocol section. The protein extraction and western blot was carried out according to western blot protocol with mouse anti-active β-catenin antibody (1:1000). […] The RNA was isolated with RT2 qPCR-Grade RNA Isolation Kit from SABiosciences according to manufacturer's protocol described in experimental protocol section.
(§1) At the end of experimental treatment, cells were lysed in Modified RIPA buffer (150 mM NaCl, 50 mM TrisHCl, 1% IGEPAL, 0.5% sodium deoxycholate, 1 mM EDTA, 1% Triton X-100 and 0.1% SDS with protease and phosphatase inhibitor) (all chemicals from Sigma). […] After 15 minutes centrifuge at 15000 rpm at 4 degrees C., supernatant was transferred to a new 1.5 ml tube and protein concentration was measured with BCA protein assay according to manufacturer's standard protocol (Pierce). […]

[2] = system: Wnt/β-catenin target genes such as β-catenin (CTNNB1), MYC, CCND1 and AXIN2; assay: Real-time RT-PCR of Wnt/β-catenin target genes after Wnt3a treatment of 293H cells; type: cell-based, human; conditions: 400 ng/ml Wnt3a, 12 hours, compared to untreated samples, FIG. 2B
Procedure: (§2) The protocol that was used to identify the subject gene signature is depicted schematically in FIG. 1. As depicted therein, human embryonic kidney 293H cells were plated in 6-well plate in a density of 10′ cells per well in 2 ml growth medium. Plated cells were incubated in a cell culture incubator at 37 degrees C. with 5% CO2 supplied. Twenty four hours after plating, cells were transfected with siRNA specifically targeting β-catenin or non targeting siRNA as control. For each well, 6 μl of SureFECT transfection reagent (SABiosciences, a QIAGEN company) was diluted into 200 μl of OptiMEM medium (Invitrogen). The diluted transfection reagent was mixed with 20 nM −β catenin targeting siRNA duplex D ([…] (SEQ ID NO: 65)) (SABiosciences, a QIAGEN Company) or non-targeting siRNA ([…] (SEQ ID NO: 66)) (SABiosciences, a QIAGEN owned company) as control. After incubation at room temperature for 20 min, the transfection mixture was added into 293H cells in 6-well plate with 2 ml growth medium. […]
For RNA extraction, cells were lysed in 200 μl of G6 buffer (SABiosciences, a QIAGEN company) for each well. […] The concentration of RNA was measured with Nanodrop spectrophotometer (Thermo SCIENTIFIC) and the RNA was further processed for real-time RT PCR or microarray gene expression profiling analysis. […]

active β-catenin [3] = assay: Western blot of active β-catenin after Wnt3a treatment of 293H cells; type: cell-based, human; conditions: 400 ng/ml Wnt3a, 12 hour treatment in serum-free medium, compared to untreated samples, FIG. 2A
Procedure: as §2, with “control.” for “control. After incubation at room temperature for 20 min, the transfection mixture was added into 293H cells in 6-well plate with 2 ml growth medium.”
as §1

active β-catenin [4] = assay: Western blot of active β-catenin after Wnt3a treatment of ten different cell lines; type: cell-based; conditions: 400 ng/ml Wnt3a, 12 h in serum-free medium, FIG. 3B
Procedure: To obtain ten positively regulated samples with Wnt3a treatment, ten different cell lines were plated in 6-well plates in a density of 2×10^5 cells/well/2 ml. After 24 h of plating, cells were switched to serum-free medium by removing normal culture medium, washing cells in PBS two times and replacing with 1 ml serum-free medium each well. After 12 hours in serum-free medium, cells were replaced with serum-free medium with or without 400 ng/ml Wnt3a in duplicate wells for an additional incubation of 12 h. At the end of 12 hours incubation, cells were either lysed in 50 μl modified RIPA buffer for protein lysate extraction or in 200 μl G6 lysis buffer for RNA isolation. The protein extraction and western blot was carried out according to western blot protocol with mouse anti-active β-catenin antibody (1:1000). […]
as §1

Molecule	active β-catenin protein levels (active β-catenin [1])	mRNA expression of Wnt/β-catenin target genes (CTNNB1, MYC, CCND1, AXIN2) [2]	protein levels of active β-catenin (active β-catenin [3])	active β-catenin protein levels (active β-catenin [4])
[Cl-].[Li+] [LiCl]	increased active β-catenin protein levels	–	–	–
Wnt3a	–	upregulation of Wnt/β-catenin target genes	increased protein levels of active β-catenin	increased active β-catenin protein levels
